We go through 22 compounds from patent publication US8637509B2, “Azaindazoles” (GlaxoSmithKline LLC, priority 2010, dated 2014).

Usually IC50 stands for the concentration that gives 50% inhibition.

For one assay, the target named is T1, EZH2 (Homo sapiens, UniProt Q15910).
T1 construct: GRITS37108
T1 sequence (Q15910 whole entry): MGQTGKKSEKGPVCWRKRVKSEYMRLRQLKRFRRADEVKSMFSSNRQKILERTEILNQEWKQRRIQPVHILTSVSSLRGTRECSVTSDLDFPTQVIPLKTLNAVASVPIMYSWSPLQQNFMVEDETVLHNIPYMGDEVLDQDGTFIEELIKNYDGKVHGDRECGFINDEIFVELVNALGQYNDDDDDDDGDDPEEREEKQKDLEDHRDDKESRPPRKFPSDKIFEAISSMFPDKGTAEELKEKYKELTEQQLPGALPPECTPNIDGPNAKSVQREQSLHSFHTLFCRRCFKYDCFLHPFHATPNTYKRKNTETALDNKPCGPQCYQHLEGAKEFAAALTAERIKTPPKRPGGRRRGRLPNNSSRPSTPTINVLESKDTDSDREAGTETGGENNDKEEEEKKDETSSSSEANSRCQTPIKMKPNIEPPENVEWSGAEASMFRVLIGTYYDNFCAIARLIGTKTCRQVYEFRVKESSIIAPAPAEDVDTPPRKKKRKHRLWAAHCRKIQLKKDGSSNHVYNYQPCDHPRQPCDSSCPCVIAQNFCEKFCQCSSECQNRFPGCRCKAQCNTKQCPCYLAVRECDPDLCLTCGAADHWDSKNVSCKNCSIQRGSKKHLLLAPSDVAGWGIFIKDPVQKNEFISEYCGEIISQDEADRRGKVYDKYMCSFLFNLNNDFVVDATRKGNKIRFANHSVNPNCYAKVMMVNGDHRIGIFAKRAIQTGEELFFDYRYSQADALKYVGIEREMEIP
T1 sequence (O75530 whole entry partner): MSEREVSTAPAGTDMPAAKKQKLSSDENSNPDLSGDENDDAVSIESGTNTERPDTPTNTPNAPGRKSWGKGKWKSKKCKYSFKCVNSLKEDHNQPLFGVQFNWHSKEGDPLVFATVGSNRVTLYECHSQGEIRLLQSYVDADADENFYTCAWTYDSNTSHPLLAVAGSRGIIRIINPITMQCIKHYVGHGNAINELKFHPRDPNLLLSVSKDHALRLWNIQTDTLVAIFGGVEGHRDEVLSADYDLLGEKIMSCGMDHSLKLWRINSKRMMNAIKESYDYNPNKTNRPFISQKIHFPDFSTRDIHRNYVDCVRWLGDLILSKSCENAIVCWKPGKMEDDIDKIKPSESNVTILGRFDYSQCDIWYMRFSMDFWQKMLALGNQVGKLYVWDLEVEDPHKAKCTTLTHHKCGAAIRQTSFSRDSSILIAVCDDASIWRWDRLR
T1 sequence (Q15022 whole entry partner): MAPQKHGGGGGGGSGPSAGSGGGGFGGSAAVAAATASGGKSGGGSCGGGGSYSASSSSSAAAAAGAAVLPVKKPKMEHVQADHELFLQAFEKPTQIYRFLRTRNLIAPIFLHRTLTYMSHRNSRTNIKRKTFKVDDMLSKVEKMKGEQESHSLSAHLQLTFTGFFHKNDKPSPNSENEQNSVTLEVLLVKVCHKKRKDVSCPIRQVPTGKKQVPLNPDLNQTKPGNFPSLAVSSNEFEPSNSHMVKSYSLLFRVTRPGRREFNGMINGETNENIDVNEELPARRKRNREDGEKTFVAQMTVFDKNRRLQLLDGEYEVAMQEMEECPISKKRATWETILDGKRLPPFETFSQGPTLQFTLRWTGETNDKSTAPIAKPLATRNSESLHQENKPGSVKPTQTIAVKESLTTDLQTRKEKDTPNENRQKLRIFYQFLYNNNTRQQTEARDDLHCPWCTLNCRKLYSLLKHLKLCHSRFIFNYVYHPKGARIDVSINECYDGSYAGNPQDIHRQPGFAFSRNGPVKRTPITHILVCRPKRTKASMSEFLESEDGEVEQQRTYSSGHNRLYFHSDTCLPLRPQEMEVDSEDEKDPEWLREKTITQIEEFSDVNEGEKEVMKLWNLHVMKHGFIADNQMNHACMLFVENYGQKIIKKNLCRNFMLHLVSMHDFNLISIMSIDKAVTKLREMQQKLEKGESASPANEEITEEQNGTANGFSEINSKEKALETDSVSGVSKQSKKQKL
The experiment in a line: EZH2 methyltransferase SPA assay (3H-SAM, Hela nucleosomes). It counts as biochemical.
Conditions: not given
`CCCc1cc(C)[nH]c(=O)c1CNC(=O)c1cc(-c2ccncc2)nc2c1cnn2C(C)C` [Ex 11, 1-(1-Methylethyl)-N-[(6-methyl-2-oxo-4-propyl-1,2-dihydro-3-pyridinyl)methyl]-6-(4-pyridinyl)-1H-pyrazolo[3,4-b]pyridine-4-carboxamide] returned an IC50 of 18 nM.
The same measure, in the same setting: for `Cc1[nH]c(=O)c(CNC(=O)c2cc(-c3ccncc3)nc3c2cnn3C(C)C)c(C)c1F` [Ex 20, N-[(5-Fluoro-4,6-dimethyl-2-oxo-1,2-dihydro-3-pyridinyl)methyl]-1-(1-methylethyl)-6-(4-pyridinyl]-1H-pyrazolo[3,4-b]pyridine-4-carboxamide] the value was 4650 nM.

The assay is the same for the next values; noted with them: 10 nM EZH2, 7 μg/ml Hela nucleosomes, 2-parameter IC50 fit; single-point-in-time values; read-out: IC50.
As to “6-{[4-(Aminocarbonyl)phenyl]amino}-N-[(4,6-dimethyl-2-oxo-1,2-dihydro-3-pyridinyl)methyl]-1-(1-methylethyl)-1H-pyrazolo[3,4-b]pyridine-4-carboxamide [Ex 86]”, the 50% inhibitory concentration (IC50) came to 142 nM.

The assay is the same for the next values; noted with them: read-out: IC50.
Regarding `Cc1cc(C)c(CNC(=O)c2cc(Cl)nc3c2cnn3C(C)C)c(=O)[nH]1` [Ex 1, 6-Chloro-N-[(4,6-dimethyl-2-oxo-1,2-dihydro-3-pyridinyl)methyl]-1-(1-methylethyl)-1H-pyrazolo[3,4-b]pyridine-4-carboxamide], the IC50 stood at 475 nM.
Consider `Cc1cc(C)c(CNC(=O)c2cc(Cl)nc3c2c(C)nn3C(C)C)c(=O)[nH]1` [Ex 2, 6-Chloro-N-[(4,6-dimethyl-2-oxo-1,2-dihydro-3-pyridinyl)methyl]-3-methyl-1-(1-methylethyl)-1H-pyrazolo[3,4-b]pyridine-4-carboxamide], for which the 50% inhibitory concentration (IC50) stood at 806 nM.
Same read-out and setting: for `Cc1cc(C)c(CNC(=O)c2cc(Oc3ccncc3)nc3c2cnn3C(C)C)c(=O)[nH]1` [Ex 4, N-[(4,6-Dimethyl-2-oxo-1,2-dihydro-3-pyridinyl)methyl]-1-(1-methylethyl)-6-(4-pyridinyloxy)-1H-pyrazolo[3,4-b]pyridine-4-carboxamide] the value was 116 nM; for `C=CCNc1cc(C(=O)NCc2c(C)cc(C)[nH]c2=O)c2cnn(C(C)C)c2n1` [Ex 5, N-[(4,6-Dimethyl-2-oxo-1,2-dihydro-3-pyridinyl)methyl]-1-(1-methylethyl)-6-(2-propen-1-ylamino)-1H-pyrazolo[3,4-b]pyridine-4-carboxamide], 705 nM; for `Cc1cc(C)c(CNC(=O)c2cc(N)nc3c2cnn3C(C)C)c(=O)[nH]1` [Ex 6, 6-Amino-N-[(4,6-dimethyl-2-oxo-1,2-dihydro-3-pyridinyl)methyl]-1-(1-methylethyl)-1H-pyrazolo[3,4-b]pyridine-4-carboxamide], 695 nM.
Still for that read-out and setting: under `CCCc1cc(C)c(CNC(=O)c2cc(C3CC3)nc3c2cnn3C(C)C)c(=O)[nH]1` [Ex 7, 6-Cyclopropyl-1-(1-methylethyl)-N-[(4-methyl-2-oxo-6-propyl-1,2-dihydro-3-pyridinyl)methyl]-1H-pyrazolo[3,4-b]pyridine-4-carboxamide] stands 1300 nM.
Still for that read-out and setting: under `Cc1cc(C(C)C)c(CNC(=O)c2cc(C3CC3)nc3c2cnn3C(C)C)c(=O)[nH]1` [Ex 8, 6-Cyclopropyl-1-(1-methylethyl)-N-{[6-methyl-4-(1-methylethyl)-2-oxo-1,2-dihydro-3-pyridinyl]methyl}-1H-pyrazolo[3,4-b]pyridine-4-carboxamide] stands 167 nM; under `CCCc1cc(C)c(CNC(=O)c2cc(-c3ccncc3)nc3c2cnn3C(C)C)c(=O)[nH]1` [Ex 9, 1-(1-Methylethyl)-N-[(4-methyl-2-oxo-6-propyl-1,2-dihydro-3-pyridinyl)methyl]-6-(4-pyridinyl)-1H-pyrazolo[3,4-b]pyridine-4-carboxamide], 1310 nM; under `CCc1cc(C)c(CNC(=O)c2cc(-c3ccncc3)nc3c2cnn3C(C)C)c(=O)[nH]1` [Ex 10, N-[(6-Ethyl-4-methyl-2-oxo-1,2-dihydro-3-pyridinyl)methyl]-1-(1-methylethyl)-6-(4-pyridinyl)-1H-pyrazolo[3,4-b]pyridine-4-carboxamide], 569 nM.
Turning to `Cc1cc(C(C)C)c(CNC(=O)c2cc(-c3ccncc3)nc3c2cnn3C(C)C)c(=O)[nH]1` [Ex 12, 1-(1-Methylethyl)-N-{[6-methyl-4-(1-methylethyl)-2-oxo-1,2-dihydro-3-pyridinyl]methyl}-6-(4-pyridinyl)-1H-pyrazolo[3,4-b]pyridine-4-carboxamide], the half-maximal inhibitory concentration (IC50) was 55 nM.
Still for that read-out and setting: under `CCCc1cc(C)[nH]c(=O)c1CNC(=O)c1cc(C2CC2)nc2c1cnn2C(C)C` [Ex 13, 6-Cyclopropyl-1-(1-methylethyl)-N-[(6-methyl-2-oxo-4-propyl-1,2-dihydro-3-pyridinyl)methyl]-1H-pyrazolo[3,4-b]pyridine-4-carboxamide] stands 55 nM; under `Cc1cc(-c2ccccc2)c(CNC(=O)c2cc(-c3ccncc3)nc3c2cnn3C(C)C)c(=O)[nH]1` [Ex 14, 1-(1-Methylethyl)-N-[(6-methyl-2-oxo-4-phenyl-1,2-dihydro-3-pyridinyl)methyl]-6-(4-pyridinyl)-1H-pyrazolo[3,4-b]pyridine-4-carboxamide], 735 nM.
The same measure, in the same setting: under `Cc1cc(C2CCCCC2)c(CNC(=O)c2cc(-c3ccncc3)nc3c2cnn3C(C)C)c(=O)[nH]1` [Ex 15, N-[(4-Cyclohexyl-6-methyl-2-oxo-1,2-dihydro-3-pyridinyl)methyl]-1-(1-methylethyl)-6-(4-pyridinyl)-1H-pyrazolo[3,4-b]pyridine-4-carboxamide] stands 179 nM; under `Cc1cc(C2CCCCC2)c(CNC(=O)c2cc(C3CC3)nc3c2cnn3C(C)C)c(=O)[nH]1` [Ex 16, N-[(4-Cyclohexyl-6-methyl-2-oxo-1,2-dihydro-3-pyridinyl)methyl]-6-cyclopropyl-1-(1-methylethyl)-1H-pyrazolo[3,4-b]pyridine-4-carboxamide], 105 nM; under `Cc1cc(-c2ccccc2)c(CNC(=O)c2cc(C3CC3)nc3c2cnn3C(C)C)c(=O)[nH]1` [Ex 17, 6-Cyclopropyl-1-(1-methylethyl)-N-[(6-methyl-2-oxo-4-phenyl-1,2-dihydro-3-pyridinyl)methyl]-1H-pyrazolo[3,4-b]pyridine-4-carboxamide], 2590 nM.
The same measure, in the same setting: under `Cc1cc(C2CC2)c(CNC(=O)c2cc(-c3ccncc3)nc3c2cnn3C(C)C)c(=O)[nH]1` [Ex 18, N-[(4-Cyclopropyl-6-methyl-2-oxo-1,2-dihydro-3-pyridinyl)methyl]-1-(1-methylethyl)-6-(4-pyridinyl)-1H-pyrazolo[3,4-b]pyridine-4-carboxamide] stands 40 nM.
For `Cc1cc(C2CC2)[nH]c(=O)c1CNC(=O)c1cc(C2CC2)nc2c1cnn2C(C)C` [Ex 19, 6-Cyclopropyl-N-[(6-cyclopropyl-4-methyl-2-oxo-1,2-dihydro-3-pyridinyl)methyl]-1-(1-methylethyl)-1H-pyrazolo[3,4-b]pyridine-4-carboxamide], the IC50 amounted to 3370 nM.
For `CCNc1cc(C(=O)NCc2c(C)cc(C)[nH]c2=O)c2cnn(C(C)C)c2n1` [Ex 21, N-[(4,6-Dimethyl-2-oxo-1,2-dihydro-3-pyridinyl)methyl]-6-(ethylamino)-1-(1-methylethyl)-1H-pyrazolo[3,4-b]pyridine-4-carboxamide], the IC50 was 1040 nM.
On the same count and under the same terms, under `Cc1cc(C)c(CNC(=O)c2ccnc3c2cnn3C(C)C)c(=O)[nH]1` [Ex 22, N-[(4,6-Dimethyl-2-oxo-1,2-dihydro-3-pyridinyl)methyl]-1-(1-methylethyl)-1H-pyrazolo[3,4-b]pyridine-4-carboxamide] stands 1360 nM.
